Measurements reported in patent US20030203372A1, “Analysis method” (priority 2000, published 2003).

Legend:
[1] = test system: HIF; assay: HRE-Luc luciferase reporter assay of HIF activity in transiently transfected 293T cells (evaluation of HIF prolyl hydroxylase inhibitors and EGLN3 isoforms); format: cell-based, human; conditions: normoxia, even when full length EGLN3 protein or EGLN3 splice variant was over-expressed; MIMO 0.4 mM
Experimental: As discussed above, the stability of HIF is controlled by proline hydroxylation, catalysed by the product of the EGLN3 gene which renders the HIF protein unstable. EGLN3 is only active in normoxia since the reaction that it catalyses requires oxygen.
Plasmid CMV-SVFL1 expresses full length EGLN3. Plasmid CMV-SVFL2 expresses the EGLN3 splice variant.
Three plasmid transfections were performed and pCIneo was used as the “stuffing”/control plasmid to fill the vacancies.
Transfected 293 cells were incubated under normoxia till the end of the experiment.

[2] = Hypoxia response of the referenced genes/sequences, summary in cross-reference Table 26; format: cell-based, human; conditions: direction of expression change of the gene/sequence in response to hypoxia
[3] = test system: primary human macrophages; assay: Custom gene array, macrophages exposed to hypoxia and/or IL-15; format: cell-based; conditions: relative to no cytokine, 20% oxygen = 1
Experimental: Gene expression levels were measured and compared using the custom gene array. In data analysis per-gene normalisation was set up such that expression values represent the fold-change compared with the expression in untreated normoxic cells. Genes which are increased in expression in response to TNFα by at least 2-fold, in either normoxic or hypoxic cells, are shown in Table 20. Genes which are decreased in expression in response to TNFα by at least 2-fold, in either normoxic or hypoxic cells, are shown in Table 21.
The cytokine IL-15 is implicated in several disease in which macrophages and hypoxia both feature as elements of the inflammatory state, such as in atherosclerosis (Wuttge D M et al Am J Pathol. 2001 159:417-23) and rheumatoid arthritis (McInnes I B et al Immunol Today. 1998 19:75-9). Although the main target of IL-15 is T-cells effects have also been shown on monocytes (Badolato R et al Blood. 1997 90:2804-9). Therefore genes which respond to both hypoxia and IL-15 are especially likely to be relevant to disease processes and have utility in the design of therapeutic products. Genes which are increased in expression in response to IL-15 by at least 2-fold, in either normoxic or hypoxic cells, are shown in Table 24. Genes which are decreased in expression in response to IL-15 by at least 2-fold, in either normoxic or hypoxic cells, are shown in Table 25.

[4] = test system: primary human macrophages; assay: Custom gene array, macrophages exposed to hypoxia and/or TNFα; format: cell-based; conditions: relative to no cytokine, 20% oxygen = 1

CCOC(=O)c1ccc(O)c(O)c1 [EDB]
HIF-PH inhibition [1]: work as HIF-PH inhibitors

Alpha-2-macroglobulin
Hypoxia response [2]: Repression

Endothelin 1
Hypoxia response [2]: Repression

IL-15
ABL expression (clone p1H8, Seq ID 182) ([3]; 0.1% oxygen): 0.09 | Abstrakt expression (clone p1C14, Seq ID 384) ([3]; 0.1% oxygen): 1.24 | Adipophilin expression (clone p1B6, Seq ID 314) ([3]; 0.1% oxygen): 2.39 | Adipophilin expression (clone p1B7, Seq ID 314) ([3]; 0.1% oxygen): 2.02 | Adipophilin expression (clone p1B8, Seq ID 314) ([3]; 0.1% oxygen): 1.42 | Adipophilin expression (clone p1B9, Seq ID 314) ([3]; 0.1% oxygen): 1.66 | Aldolase C expression (clone p1A19, Seq ID 260) ([3]; 0.1% oxygen): 1.30 | D123 expression (clone p1C7, Seq ID 370) ([3]; 0.1% oxygen): 0.90 | EST expression (clone p1D19, Seq ID 144) ([3]; 0.1% oxygen): 1.39 | EST expression (clone p1H6, Seq ID 192) ([3]; 0.1% oxygen): 0.67 | EST expression (clone p2A14, Seq ID 446) ([3]; 0.1% oxygen): 0.51 | Fatty-acid-Coenzyme A ligase, long-chain 2 expression (clone p1J11, Seq ID 466) ([3]; 0.1% oxygen): 1.29 | GAPDH expression (clone p1A11, Seq ID 254) ([3]; 0.1% oxygen): 4.32 | Glucose phosphate isomerase expression (clone p1C6, Seq ID 368) ([3]; 0.1% oxygen): 3.13 | Glycogen synthase 1 expression (clone p1G24, Seq ID 276) ([3]; 0.1% oxygen): 0.55 | Hypoxia-inducible protein 2 expression (clone p1D8, Seq ID 272) ([3]; 0.1% oxygen): 0.62 | Keratin 6B expression (clone p1K14, Seq ID 422) ([3]; 0.1% oxygen): 0.11 | Lactate dehydrogenase A expression (clone p1A8, Seq ID 224) ([3]; 0.1% oxygen): 2.29 | Lactate dehydrogenase A expression (clone p1A9, Seq ID 224) ([3]; 0.1% oxygen): 1.83 | Metallothionein 2A expression (clone p1A23, Seq ID 266) ([3]; 0.1% oxygen): 3.08 | Neutral sphingomyelinase (N-SMase) activation associated factor expression (clone p1J22, Seq ID 428) ([3]; 0.1% oxygen): 0.11 | Proline 4-hydroxylase, alpha polypeptide II expression (clone p1B4, Seq ID 350) ([3]; 0.1% oxygen): 1.34 | SCYA2 expression (clone p1P5, Seq ID 396) ([3]; 0.1% oxygen): 1.37 | SCYA7 expression (clone p1J5, Seq ID 464) ([3]; 0.1% oxygen): 1.61 | SCYA8 expression (clone p1I21, Seq ID 480) ([3]; 0.1% oxygen): 1.55 | Triosephosphate isomerase 1 expression (clone p1A20, Seq ID 262) ([3]; 0.1% oxygen): 1.22 | Uridine 5′ monophosphate hydrolase 1 expression (clone p1I7, Seq ID 50) ([3]; 0.1% oxygen): 3.61 | cDNA: FLJ23019 fis, clone LNG00916 expression (clone p1J16, Seq ID 454) ([3]; 0.1% oxygen): 7.27 | hypothetical protein FLJ10206 expression (clone p1J6, Seq ID 40) ([3]; 0.1% oxygen): 0.18 | hypothetical protein FLJ22690 expression (clone p1H5, Seq ID 206) ([3]; 0.1% oxygen): 1.59 | hypothetical protein MGC4549 expression (clone p1I12, Seq ID 152) ([3]; 0.1% oxygen): 0.28 | ABL expression (clone p1H8, Seq ID 182) ([3]; 20% oxygen): 1.22 | Abstrakt expression (clone p1C14, Seq ID 384) ([3]; 20% oxygen): 0.40 | Adipophilin expression (clone p1B6, Seq ID 314) ([3]; 20% oxygen): 0.37 | Adipophilin expression (clone p1B7, Seq ID 314) ([3]; 20% oxygen): 0.30 | Adipophilin expression (clone p1B8, Seq ID 314) ([3]; 20% oxygen): 0.23 | Adipophilin expression (clone p1B9, Seq ID 314) ([3]; 20% oxygen): 0.41 | Aldolase C expression (clone p1A19, Seq ID 260) ([3]; 20% oxygen): 0.35 | D123 expression (clone p1C7, Seq ID 370) ([3]; 20% oxygen): 0.47 | EST expression (clone p1D19, Seq ID 144) ([3]; 20% oxygen): 2.27 | EST expression (clone p1H6, Seq ID 192) ([3]; 20% oxygen): 1.95 | EST expression (clone p2A14, Seq ID 446) ([3]; 20% oxygen): 1.08 | Fatty-acid-Coenzyme A ligase, long-chain 2 expression (clone p1J11, Seq ID 466) ([3]; 20% oxygen): 1.64 | GAPDH expression (clone p1A11, Seq ID 254) ([3]; 20% oxygen): 0.52 | Glucose phosphate isomerase expression (clone p1C6, Seq ID 368) ([3]; 20% oxygen): 0.57 | Glycogen synthase 1 expression (clone p1G24, Seq ID 276) ([3]; 20% oxygen): 0.88 | Hypoxia-inducible protein 2 expression (clone p1D8, Seq ID 272) ([3]; 20% oxygen): 1.25 | Keratin 6B expression (clone p1K14, Seq ID 422) ([3]; 20% oxygen): 1.48 | Lactate dehydrogenase A expression (clone p1A8, Seq ID 224) ([3]; 20% oxygen): 0.48 | Lactate dehydrogenase A expression (clone p1A9, Seq ID 224) ([3]; 20% oxygen): 0.49 | Metallothionein 2A expression (clone p1A23, Seq ID 266) ([3]; 20% oxygen): 1.26 | Neutral sphingomyelinase (N-SMase) activation associated factor expression (clone p1J22, Seq ID 428) ([3]; 20% oxygen): 1.51 | Proline 4-hydroxylase, alpha polypeptide II expression (clone p1B4, Seq ID 350) ([3]; 20% oxygen): 0.50 | SCYA2 expression (clone p1P5, Seq ID 396) ([3]; 20% oxygen): 4.51 | SCYA7 expression (clone p1J5, Seq ID 464) ([3]; 20% oxygen): 3.27 | SCYA8 expression (clone p1I21, Seq ID 480) ([3]; 20% oxygen): 3.77 | Triosephosphate isomerase 1 expression (clone p1A20, Seq ID 262) ([3]; 20% oxygen): 0.36 | Uridine 5′ monophosphate hydrolase 1 expression (clone p1I7, Seq ID 50) ([3]; 20% oxygen): 4.98 | cDNA: FLJ23019 fis, clone LNG00916 expression (clone p1J16, Seq ID 454) ([3]; 20% oxygen): 5.76 | hypothetical protein FLJ10206 expression (clone p1J6, Seq ID 40) ([3]; 20% oxygen): 1.28 | hypothetical protein FLJ22690 expression (clone p1H5, Seq ID 206) ([3]; 20% oxygen): 2.37 | hypothetical protein MGC4549 expression (clone p1I12, Seq ID 152) ([3]; 20% oxygen): 1.64

IL-17
Decidual protein induced by progesterone expression (clone p1C16, Seq ID 388) ([4]; 0.1% oxygen): 0.51 | EST expression (clone p1H4, Seq ID 214) ([4]; 0.1% oxygen): 0.58 | EST expression (clone p2A14, Seq ID 446) ([4]; 0.1% oxygen): 0.40 | Fatty-acid-Coenzyme A ligase, long-chain 2 expression (clone p1J11, Seq ID 466) ([4]; 0.1% oxygen): 1.28 | GAPDH expression (clone p1A11, Seq ID 254) ([4]; 0.1% oxygen): 1.84 | GRO1 expression (clone p1I24, Seq ID 486) ([4]; 0.1% oxygen): 1.28 | GRO2 expression (clone p1I19, Seq ID 482) ([4]; 0.1% oxygen): 1.43 | Glucose phosphate isomerase expression (clone p1C6, Seq ID 368) ([4]; 0.1% oxygen): 1.43 | Interleukin 8 expression (clone p1B14, Seq ID 252) ([4]; 0.1% oxygen): 7.13 | Interleukin 8 expression (clone p1B15, Seq ID 252) ([4]; 0.1% oxygen): 9.71 | Interleukin 8 expression (clone p1B16, Seq ID 252) ([4]; 0.1% oxygen): 12.2 | Neutral sphingomyelinase (N-SMase) activation associated factor expression (clone p1J22, Seq ID 428) ([4]; 0.1% oxygen): 0.11 | Plasminogen activator inhibitor, type 1 expression (clone p1B18, Seq ID 236) ([4]; 0.1% oxygen): 0.78 | SCYA2 expression (clone p1P5, Seq ID 396) ([4]; 0.1% oxygen): 0.58 | SCYA4 expression (clone p1K8, Seq ID 408) ([4]; 0.1% oxygen): 0.83 | cDNA YI27F12 expression (clone p1E15, Seq ID 108) ([4]; 0.1% oxygen): 0.56 | hypothetical protein FLJ10206 expression (clone p1J6, Seq ID 40) ([4]; 0.1% oxygen): 0.23 | Decidual protein induced by progesterone expression (clone p1C16, Seq ID 388) ([4]; 20% oxygen): 0.73 | EST expression (clone p1H4, Seq ID 214) ([4]; 20% oxygen): 0.49 | EST expression (clone p2A14, Seq ID 446) ([4]; 20% oxygen): 0.56 | Fatty-acid-Coenzyme A ligase, long-chain 2 expression (clone p1J11, Seq ID 466) ([4]; 20% oxygen): 1.63 | GAPDH expression (clone p1A11, Seq ID 254) ([4]; 20% oxygen): 2.60 | GRO1 expression (clone p1I24, Seq ID 486) ([4]; 20% oxygen): 2.29 | GRO2 expression (clone p1I19, Seq ID 482) ([4]; 20% oxygen): 2.26 | Glucose phosphate isomerase expression (clone p1C6, Seq ID 368) ([4]; 20% oxygen): 2.14 | Glycogen synthase 1 expression (clone p1G24, Seq ID 276) ([4]; 20% oxygen): 0.34 | Hypoxia-inducible protein 2 expression (clone p1D8, Seq ID 272) ([4]; 20% oxygen): 0.44 | Interleukin 8 expression (clone p1B14, Seq ID 252) ([4]; 20% oxygen): 9.34 | Interleukin 8 expression (clone p1B15, Seq ID 252) ([4]; 20% oxygen): 7.36 | Interleukin 8 expression (clone p1B16, Seq ID 252) ([4]; 20% oxygen): 9.52 | Plasminogen activator inhibitor, type 1 expression (clone p1B18, Seq ID 236) ([4]; 20% oxygen): 0.49 | SCYA2 expression (clone p1P5, Seq ID 396) ([4]; 20% oxygen): 2.12 | SCYA4 expression (clone p1K8, Seq ID 408) ([4]; 20% oxygen): 2.48 | hypothetical protein FLJ10206 expression (clone p1J6, Seq ID 40) ([4]; 20% oxygen): 0.22
